This note sets out measurements from patent publication US9061984B2 (University of Louisville Research Foundation, Inc., priority 2008, dated 2015).

Data set [1] deals with M. tuberculosis H37Rv. The data set can be described thus: Anti-tuberculosis bioassay (tetrazolium microplate MIC). Type of data set: cell-based. As to conditions: Mycobacterium tuberculosis, read-out: Mycobacterium MIC H37Rv, Table 5.
Data set [2] has as its system axenic amastigotes of L. amazonensis (strain MHOM/BR/76/LTB-012). Conditions: Table 8b; for pIC50: read-out: L. amazonensis IC50.
The subject of data set [3] is VERO cells. The data set can be described thus: Cell growth inhibition bioassay (sulforhodamine B). As to conditions: 48 h, SRB. Type of data set: cell-based, African Green Monkey. The method, boiled down: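 Cytotoxicity is read by sulforhodamine B colorimetry following the Skehan protocol; values are growth inhibition relative to solvent-only wells.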
Data set [4] in a line: Toxicity to peritoneal macrophages (Trypan Blue count). Type of data set: cell-based, BALB/C mouse. Conditions: BALB/C, mouse.
Data set [5] concerns M. tuberculosis H37Rv. As to the kind of experiment: Conventional aerobic (MABA) culture assay, luminescence MIC. As to conditions: aerobic, 7 days, H37Rv. Type of data set: cell-based, Mycobacterium tuberculosis.
Data set [6] concerns Trypanosoma cruzi (Tulahuen C4). As to the kind of experiment: In vitro anti-T. cruzi activity (β-galactosidase CPRG colorimetric assay in VERO monolayer). It is filed as cell-based.
Data set [7] has as its system axenic amastigotes of L. amazonensis (strain MHOM/BR/76/LTB-012). As to the kind of experiment: microbe, parasite or virus in culture. Conditions: Leishmania amazonensis.
Data set [8] concerns 3T3 cells. The data set can be described thus: Cell growth inhibition bioassay (sulforhodamine B). It is filed as cell-based, mouse. The method, boiled down:
(§1)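 Cells were exposed to compound alongside matched solvent controls, then stained with sulforhodamine B. Percent growth inhibition was calculated from dye absorbance against the control.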

Data set [9] relates to DU145 cells. The data set can be described thus: Cell growth inhibition bioassay (sulforhodamine B). It is filed as cell-based, human. Conditions: 48 h, SRB. The method, boiled down:
(§2)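 Growth inhibition was measured colorimetrically with sulforhodamine B staining and expressed as percent inhibition relative to solvent-treated controls. Cell lines were human: MCF-7 breast adenocarcinoma, DU145 and PC3 prostate carcinoma/adenocarcinoma, H460 large cell lung cancer.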

Data set [10] relates to HT-29 cells. The data set can be described thus: Cell growth inhibition bioassay (sulforhodamine B). Type of data set: cell-based, human. As to conditions: 48 h, SRB. Put shortly:
as §1

Data set [11] concerns M-14 cells. As to the kind of experiment: Cell growth inhibition bioassay (sulforhodamine B). Type of data set: cell-based, human. As to conditions: 48 h, SRB. The method, boiled down: as §1
The subject of data set [12] is MCF-7 cells. As to the kind of experiment: Cell growth inhibition bioassay (sulforhodamine B). As to conditions: 48 h, SRB. It is filed as cell-based, human. The method, boiled down: as §2
Data set [13] relates to K562 cells. As to the kind of experiment: Cell growth inhibition bioassay (sulforhodamine B). It is filed as cell-based, human. As to conditions: 48 h, SRB. Put shortly: as §1
The subject of data set [14] is H460 cells. As to the kind of experiment: Cell growth inhibition bioassay (sulforhodamine B). It is filed as cell-based, human. As to conditions: 48 h, SRB. Put shortly: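 Human cancer cells (MCF-7 breast, DU145 and PC3 prostate, H460 large cell lung) were treated with compounds. Growth relative to solvent control was quantified by SRB protein stain.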
Data set [15] concerns M. tuberculosis MDR. As to the kind of experiment: Anti-tuberculosis bioassay (tetrazolium microplate MIC). Type of data set: cell-based. Conditions: Mycobacterium tuberculosis, read-out: Mycobacterium MIC MDR.
The test system of data set [16] is VERO cells. The data set can be described thus: Cytotoxicity on VERO cells (MTT), anti-T. cruzi study. As to conditions: Lab B.
Data set [17] relates to peritoneal macrophages. As to the kind of experiment: Toxicity to peritoneal macrophages (Trypan Blue count). Type of data set: cell-based, BALB/C mouse.
The subject of data set [18] is VERO cell. As to the kind of experiment: Cytotoxicity VERO cell (Table 6). As to conditions: Table 6.

Structures are written as SMILES. pIC50: −log10 of the molar value. In brackets after ≈: the same amount, converted by molar mass. Read-outs that look alike come from different tables or passages of the source.

In the case of `O=[N+]([O-])c1ccc(/C=N\Nc2ncnc3sc4c(c23)CCCC4)cc1` [II-22], the MIC (commonly the least concentration at which growth counts as inhibited) is over 25 µg/mL in data set [1]; over 100 µg/mL in [5] (Mycobacterium tuberculosis, 168 h); over 25 µg/mL in data set [15]. The “Selectivity Index” value in data set [2] is listed as 5.2. Besides, the GI50 (commonly the concentration giving 50% growth inhibition) in [3] (Chlorocebus sabaeus, Vero, read-out: GI50 in indicated cell line: VERO) was over 62.5 µg/mL; in data set [8] (Mus musculus, NIH3T3, 48 h, SRB, read-out: GI50 in indicated cell line: 3T3), over 62.5 µg/mL; in data set [9] (Homo sapiens, DU-145, read-out: GI50 in indicated cell line: DU145), over 62.5 µg/mL; in data set [10] (Homo sapiens, HT-29, read-out: GI50 in indicated cell line: HT-29), over 62.5 µg/mL; in [11] (Homo sapiens, M14, read-out: GI50 in indicated cell line: M-14), over 62.5 µg/mL; in [12] (Homo sapiens, MCF7, read-out: GI50 in indicated cell line: MCF-7) it was over 62.5 µg/mL. Further, the GI50 in data set [13] (Homo sapiens, K562, read-out: GI50 in indicated cell line: K562) is over 62.5 µg/mL; in data set [14] (Homo sapiens, NCI-H460, read-out: GI50 in indicated cell line: H460), over 62.5 µg/mL. Moreover, the IC50 – broadly, the midpoint of a concentration-inhibition curve – at 48 h is 70.4 µM in data set [4] (Cytotoxicity Macrophages IC50) and over 10 µM in [4] (IC50 Cytotoxicity Against Macrophages). Further, the inhibition at 10 µg/mL in [6] (Trypanosoma cruzi, TULAHUEN, Vero, 120 h, 10 μg/mL of each compound, 120 hours, read-out: T. cruzi Inhib. (%)) was determined as 11.6%. Further, the pIC50 (commonly the IC50 on a negative log10 scale, so that one unit is a factor of ten) is 4.47 in data set [7] (read-out: IC50 Cytotoxicity Against Amastigotes) and 4.87 in data set [7] (read-out: L. amazonensis IC50).

In the case of `Fc1ccc(C=NNc2ncnc3sc4c(c23)CCCC4)cc1` [II-26], the “Cytotoxicity VERO Lab B” value in data set [16] is 6.0. In data set [2], the pIC50 was 5.49. Besides, the “GI50 in indicated cell line: VERO” value in data set [3] worked out at 4.2 µg/mL (≈ 12.9 µM). In addition, the pIC50 in data set [17] was 5.51. Besides, in [5], the “MIC MABA” value stood at 23.2 µg/mL (≈ 71.1 µM). For the same compound, in data set [6], the “T. cruzi IC50 Lab A” value was 1.9 µg/mL and the “T. cruzi IC50 Lab B” value was 6.0 µg/mL. Also, in [8] (48 h, SRB), the “GI50 in indicated cell line: 3T3” value amounted to 6.7 µg/mL (≈ 20.5 µM). Besides, in [18], the “Cytotoxicity VERO cell” value worked out at 12.8 µg/mL. Besides, the “GI50 in indicated cell line: DU145” value in [9] is 4.5 µg/mL (≈ 13.8 µM). The “GI50 in indicated cell line: HT-29” value in data set [10] was 3.4 µg/mL (≈ 10.4 µM). Also, the “GI50 in indicated cell line: M-14” value in [11] came out at 5.7 µg/mL (≈ 17.5 µM). The “GI50 in indicated cell line: MCF-7” value in [12] was found to be 2.4 µg/mL (≈ 7.35 µM). Besides, the “GI50 in indicated cell line: K562” value in data set [13] was 2.9 µg/mL (≈ 8.88 µM). For the same compound, in [14], the “GI50 in indicated cell line: H460” value was determined as 3.1 µg/mL (≈ 9.5 µM).

As to `CC(C)(C)C=NNc1ncnc2sc3c(c12)CCCC3` [II-36], the pIC50 in data set [2] was 4.49; in [17], 4.29. Further, in [3], the “GI50 in indicated cell line: VERO” value was 9.7 µg/mL (≈ 33.6 µM). The “MIC MABA” value in data set [5] came to 86.3 µg/mL (≈ 299 µM). For the same compound, the “T. cruzi IC50 Lab A” value in data set [6] stood at 5.3 µg/mL. For the same compound, in data set [8] (48 h, SRB), the “GI50 in indicated cell line: 3T3” value came to 2.1 µg/mL (≈ 7.28 µM). Further, the “Cytotoxicity VERO cell” value in data set [18] worked out at 29.6 µg/mL. The “GI50 in indicated cell line: DU145” value in [9] came to 7.2 µg/mL (≈ 25 µM). In addition, in data set [10], the “GI50 in indicated cell line: HT-29” value came out at 9.5 µg/mL (≈ 32.9 µM). In addition, the “GI50 in indicated cell line: M-14” value in data set [11] was found to be 9.4 µg/mL (≈ 32.6 µM). In [12], the “GI50 in indicated cell line: MCF-7” value amounted to 7.5 µg/mL (≈ 26 µM). The “GI50 in indicated cell line: K562” value in data set [13] turned out to be 7.9 µg/mL (≈ 27.4 µM). Besides, in data set [14], the “GI50 in indicated cell line: H460” value was 7.1 µg/mL (≈ 24.6 µM).

For the compound `NNc1ncnc2sc3c(c12)CCCC3` [PC], in [16], the “Cytotoxicity VERO Lab B” value stood at 9.0. Moreover, in data set [2], the pIC50 is 4.92. In [3], the “GI50 in indicated cell line: VERO” value came out at 2.5 µg/mL (≈ 11.3 µM). In addition, the pIC50 in [17] (Table 8b, read-out: Cytotoxicity Macrophages IC50) is 5.13. The “MIC MABA” value in data set [5] came out at 82.5 µg/mL (≈ 374 µM). Also, in data set [6], the “T. cruzi IC50 Lab A” value stood at 4.1 µg/mL and the “T. cruzi IC50 Lab B” value came to 4.7 µg/mL. For the same compound, the “GI50 in indicated cell line: 3T3” value in data set [8] is under 0.98 µg/mL. Also, the “Cytotoxicity VERO cell” value in data set [18] was found to be 26.9 µg/mL. Besides, in data set [9], the “GI50 in indicated cell line: DU145” value came out at 3.1 µg/mL (≈ 14.1 µM). In data set [10], the “GI50 in indicated cell line: HT-29” value stood at 4.6 µg/mL (≈ 20.9 µM). Also, the “GI50 in indicated cell line: M-14” value in data set [11] came out at 5.4 µg/mL (≈ 24.5 µM). Further, the “GI50 in indicated cell line: MCF-7” value in [12] came out at 2.0 µg/mL (≈ 9.08 µM). Moreover, in data set [13], the “GI50 in indicated cell line: K562” value turned out to be 2.4 µg/mL (≈ 10.9 µM). For the same compound, the “GI50 in indicated cell line: H460” value in data set [14] came to 2.1 µg/mL (≈ 9.53 µM).
